Measured values: PubChem BioAssay (NCI)
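A five-concentration, 48-hour dose response in 96-well plates underlies each endpoint, interpolated linearly between surrounding concentrations. TGI is the concentration that stops growth completely.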

Columns and labels:
Experiment in all cases: NCI anticancer screen, dose series, 48 h
[1] = test system: UACC-62 melanoma
[2] = test system: NCI-H460 lung
[3] = test system: SN12C renal
[4] = test system: SK-MEL-2 melanoma
[5] = test system: MOLT-4 leukemia
[6] = test system: SNB-19 CNS
[7] = test system: HOP-92 NSCLC
[8] = test system: TK-10 renal
[9] = test system: MCF7 breast
[10] = test system: HL-60(TB) leukemia
[11] = test system: UACC-257 melanoma
[12] = test system: NCI-H23 lung
[13] = test system: HCC-2998 colon
[14] = test system: IGROV1 ovarian
[15] = test system: SNB-75 CNS
[16] = test system: LOX IMVI melanoma
[17] = test system: HCT-116 colon
[18] = test system: A498 renal
[19] = test system: 786-0 renal
[20] = test system: OVCAR-5 ovarian
[21] = test system: UO-31 renal
[22] = test system: KM12 colon
[23] = test system: OVCAR-8 ovarian
[24] = test system: DU-145 prostate
[25] = test system: NCI-H522 lung
[26] = test system: CAKI-1 renal
[27] = test system: SK-MEL-28 melanoma
[28] = test system: SF-295 CNS
[29] = test system: NCI-H226 lung
[30] = test system: BT-549 breast
[31] = test system: SR leukemia
[32] = test system: MALME-3M melanoma
[33] = test system: U251 CNS
[34] = test system: A549 NSCLC
[35] = test system: SK-MEL-5 melanoma
[36] = test system: SF-268 CNS
[37] = test system: M14 melanoma
[38] = test system: MDA-MB-231 breast
[39] = test system: EKVX NSCLC
[40] = test system: ACHN renal
[41] = test system: K-562 leukemia
[42] = test system: OVCAR-3 ovarian
[43] = test system: PC-3 prostate
[44] = test system: NCI/ADR-RES ovarian
[45] = test system: HOP-62 NSCLC
[46] = test system: COLO 205 colon
[47] = test system: HT29 colon
[48] = test system: MDA-MB-435
[49] = test system: MDA-N
[50] = test system: T-47D breast
[51] = test system: RPMI-8226 leukemia
[52] = test system: HS 578T breast
[53] = test system: SW-620 colon
[54] = test system: SF-539 CNS
[55] = test system: RXF 393 renal
[56] = test system: CCRF-CEM leukemia
[57] = test system: HCT-15 colon
[58] = test system: SK-OV-3 ovarian
[59] = test system: OVCAR-4 ovarian

SMILES: O=C1N[C@H]2C(=O)c3c(Cl)sc(Cl)c3[C@H]2O1
- TGI [1]: 28.2 µM
- TGI [2]: 39.4 µM
- TGI [3]: 30.3 µM
- TGI [4]: 43.4 µM
- TGI [5]: 8.22 µM
- TGI [6]: 29.9 µM
- TGI [7]: 26.4 µM
- TGI [8]: 70.8 µM
- TGI [9]: 52.5 µM
- TGI [10]: 4.91 µM
- TGI [11]: 23 µM
- TGI [12]: 22.5 µM
- TGI [13]: 3.6 µM
- TGI [14]: 10.6 µM
- TGI [15]: 30.4 µM
- TGI [16]: 6.97 µM
- TGI [17]: 8.73 µM
- TGI [18]: 60.5 µM
- TGI [19]: 31.3 µM
- TGI [20]: 37.7 µM
- TGI [21]: 3.24 µM
- TGI [22]: 44.2 µM
- TGI [23]: 7.74 µM
- TGI [24]: 23.7 µM
- TGI [25]: 8.83 µM
- TGI [26]: 9.7 µM
- TGI [27]: 23.2 µM
- TGI [28]: 32.1 µM
- TGI [29]: > 100 µM
- TGI [30]: 54.5 µM
- TGI [31]: 6.71 µM
- TGI [32]: 33 µM
- TGI [33]: 11.6 µM
- TGI [34]: 40 µM
- TGI [35]: 35 µM
- TGI [36]: 22.4 µM
- TGI [37]: 19.6 µM
- TGI [38]: 32 µM
- TGI [39]: 3.85 µM
- TGI [40]: 21 µM
- TGI [41]: 5.09 µM
- TGI [42]: 3.54 µM
- TGI [43]: 31 µM
- TGI [44]: > 71.5 µM
- TGI [45]: 34.5 µM
- TGI [46]: 21.3 µM
- TGI [47]: 6.23 µM
- TGI [48]: 17.8 µM
- TGI [49]: 14.7 µM
- TGI [50]: 29.2 µM
- TGI [51]: 59.1 µM
- TGI [52]: 67.1 µM
- TGI [53]: 5.4 µM
- TGI [54]: 20.6 µM
- TGI [55]: 9.31 µM
- TGI [56]: 10.9 µM
- TGI [57]: 16.6 µM
- TGI [58]: 28.9 µM

SMILES: C=C(C)C(=O)OC1C(C(C)CCCO)=C(CO)CC2OC(=O)C(=C)C21 (stereo unspecified)
- TGI [1]: 31.9 µM
- TGI [2]: 37.8 µM
- TGI [3]: 32.8 µM
- TGI [4]: 61.7 µM
- TGI [5]: 88.9 µM
- TGI [6]: > 100 µM
- TGI [7]: 44.2 µM
- TGI [8]: > 100 µM
- TGI [9]: 24.1 µM
- TGI [10]: > 100 µM
- TGI [11]: 39.1 µM
- TGI [59]: > 100 µM
- TGI [12]: 43 µM
- TGI [13]: 31.8 µM
- TGI [14]: 38.8 µM
- TGI [15]: 40.5 µM
- TGI [16]: 24.5 µM
- TGI [17]: 32.2 µM
- TGI [18]: 36.5 µM
- TGI [19]: 25.9 µM
- TGI [20]: 54.3 µM
- TGI [22]: 27.7 µM
- TGI [23]: > 100 µM
- TGI [24]: 27.8 µM
- TGI [25]: 13.1 µM
- TGI [26]: 31.3 µM
- TGI [27]: 49.1 µM
- TGI [28]: > 100 µM
- TGI [29]: > 100 µM
- TGI [30]: 34.7 µM
- TGI [31]: > 100 µM
- TGI [32]: 17.8 µM
- TGI [33]: 45.3 µM
- TGI [34]: 63.7 µM
- TGI [35]: 28.5 µM
- TGI [36]: 48.8 µM
- TGI [37]: 33.8 µM
- TGI [38]: 36 µM
- TGI [39]: 87.2 µM
- TGI [40]: 79.8 µM
- TGI [41]: 49.4 µM
- TGI [42]: 54.5 µM
- TGI [43]: 76.6 µM
- TGI [44]: > 100 µM
- TGI [45]: > 100 µM
- TGI [46]: 29.3 µM
- TGI [47]: 45.9 µM
- TGI [48]: 52.1 µM
- TGI [49]: 37.7 µM
- TGI [50]: 45.5 µM
- TGI [51]: 91.9 µM
- TGI [52]: > 100 µM
- TGI [53]: 28.8 µM
- TGI [54]: 58.9 µM
- TGI [55]: 27.2 µM
- TGI [56]: > 100 µM
- TGI [57]: 26.9 µM
- TGI [58]: 95.7 µM
